What was measured:
[1] = test system: ALS (SOD-G93A) transgenic mice; experiment: Pole climbing test in ALS transgenic mice; type: in vivo; details: different dosages of OLB-1, OLB-2, riluzole 5 mg/kg, FIG. 6
Source text: The pole climbing test is generally used to evaluate a motor coordination ability and motor delay of the limbs in mice. A homemade wooden pole about 50 cm long and about 1 cm in diameter was wrapped with medical gauze to increase friction of the wooden pole. The wooden pole was put vertically on a horizontal table, the mouse tail was grabbed such that the mouse head was facing down, with limbs grabbing a top of the pole; after releasing the mouse tail, timing was started, and it was ensured that the mouse crawled downward without external force, and the time was recorded for the mouse to climb from the top of the pole to a bottom platform (a standard was that mouse hind limbs were landed on the ground). […] An average of the three pole climbing times of mice was calculated as a final pole climbing time. […] Data were presented as mean±SEM; n=10 per group. One-way ANOVA and multiple range test were adopted to show differences between the two groups. ***p<0.001 vs. WT (normal control) group; #p<0.05, ##p<0.01 vs. ALS (SOD-G93A) group.

[2] = test system: 6-OHDA Parkinson's disease rats; experiment: APO-induced rotations in 6-OHDA Parkinson's disease rats; type: in vivo; details: APO-induced 6-OHDA rats, 2 weeks of treatment; different dosages of OLB-1, OLB-2; levodopa 25 mg/kg; FIG. 8
Source text: There is no rotation in a sham-operated group, and there is no significant difference between the groups injected with 6-OHDA, and there are about 180 rotations. […] Data were presented as mean±SEM; n=9-10 per group. One-way ANOVA and multiple range test were adopted to show differences between the two groups. *p<0.05, **p<0.01 vs. before 6-OHDA group.

5*FAD mice = experiment: Memory impairment in 5*FAD mice, electrical jumping (errors jumping off the platform); type: in vivo; details: 6-month-old 5*FAD mice treated 3 months, low and high dosage; FIG. 5
Procedure: After 6-month-old 5*FAD mice were treated with OLB-1 and OLB-2 for 3 months, the number of errors that the mice jumped off the platform was detected by electrical jumping. 5*FAD mice were treated with low-dosage and high-dosage OLB-1 (low dosage: 2.31 mg/kg, 0.007 mmol/kg; high dosage: 11.70 mg/kg, 0.037 mmol/kg) and OLB-2 (low dosage: 2.3 mg/kg, 0.007 mmol/kg; high dosage: 11.67 mg/kg, 0.037 mmol/kg) and TMP (5.0 mg/kg, 0.037 mmol/kg, the same below). Data were presented as mean±SEM; n=10 per group. One-way ANOVA and multiple range test were adopted to show differences between the two groups. ***p<0.001 vs. WT group; #p<0.05, ##p<0.01 vs. 5*FAD group.

[3] = test system: ALS (SOD-G93A) transgenic mice; experiment: Limb grip force test in ALS transgenic mice; type: in vivo; details: different dosages of OLB-1, OLB-2, riluzole 5 mg/kg, FIG. 7
Procedure: The limb grip force test is used directly to assess muscle strength in mice. […] After the start of administration, the grip force of the mice was tested every two weeks, and the measurement was repeated three times for each mouse, and the maximum among the three results was taken as a maximum grip force of the mice. […] Data were presented as mean±SEM; n=10 per group. One-way ANOVA and multiple range test show differences between the two groups. **p<0.01, ***p<0.001 vs. WT (normal control) group; #p<0.05, ##p<0.01 vs. ALS (SOD-G93A) group.

SH—SY5Y cells = experiment: Neuroprotection against oxygen glucose deprivation (OGD), MTT assay; type: cell-based; details: 4 h OGD, FIG. 1
Procedure: Neuroprotective effect of tetramethylpyrazine (TMP) and derivatives thereof was evaluated by MTT assay. Cells were incubated, log-phase cells were collected, a concentration of a cell suspension was adjusted, an MTT-containing medium was added after chemical treatment and 4 h of incubation with OGD, incubation was conducted for 4 h, the medium in the wells was carefully removed, and 150 μl of dimethyl sulfoxide (DMSO) was added to each well, shaken at a low speed for 10 min on a shaker to fully dissolve crystals, and an absorbance value of each well was measured at an OD (absorbance) value of 490 nm of an enzyme-linked immunosorbent assay instrument (at the same time, a zero adjustment well (medium, MTT, DMSO), a control well (cells, a drug dissolution medium with the same concentration, medium, MTT, DMSO)). Data were presented as mean±SEM; n=8 per group. One-way ANOVA and multiple range test were adopted to show differences between the two groups. a, p<0.001 vs. control group; b, p<0.05 vs. OGD group; c, p<0.001 vs. OGD group.

[4] = test system: SH—SY5Y neuroblastoma cells; experiment: LPS-induced inflammatory factors and oxidative stress-related proteins, ELISA kit; type: cell-based; details: 1 μg/mL LPS 24 h, mean±SEM, n=8; for TNF-alpha: differentiated SH-SY5Y, supernatant
Procedure: The SH—SY5Y cells were recovered and cultured, and the cells in the logarithmic growth phase were taken. After 24 h of incubation, SH—SY5Y neuroblastoma cells were treated with 1 μM all-trans retinoic acid to induce differentiation, and then inoculated into a 6-well culture dish for 24 h of incubation. The medium was treated with chemicals feed at 0.2 μM (L) or 1 μM (H) and 1 μg/mL LPS for 24 h, a supernatant medium was aspirated, and changes of inflammatory factors and oxidative stress-related proteins were measured by an ELISA kit. Data were presented as mean±SEM; n=8 per group. One-way ANOVA and multiple range test were adopted to show differences between the two groups. a, p<0.05 vs. LPS group; b, p<0.01 vs. LPS group; c, p<0.001 vs. LPS group.

db/db mice = experiment: Urinary protein level in db/db mice, 90 d administration; type: in vivo; details: once/d 90 d, OLB-1 11.7 mg/kg, OLB-2 11.67 mg/kg, FIG. 2
Procedure: Mice of a normal control group and model mice were given normal saline 10 ml/kg/d, Losartan 10 mg/kg, TMP (5.0 mg/kg, 0.037 mmol/kg), OLB-1 (11.7 mg/kg, 0.037 mmol/kg), and OLB-2 (11.67 mg/kg, […]), at a volume of 10 mL/kg, once/d, for continuous administration of 90 d, urine protein levels were measured after urine collection. Data were presented as mean±SEM; n=6 per group. One-way ANOVA and multiple range test were adopted to show differences between the two groups. a, p<0.05 vs. db/db group; c, p<0.001 vs. db/db group.

Row | SMILES | pole climbing time / symptoms of bradykinesia [1] | number of rotations [2] | memory impairment (number of errors jumping off the platform) (5*FAD mice) | limb grip force [3] | death of SH—SY5Y cells caused by OGD (SH—SY5Y cells) | GSH-Px ([4]; compound 0.2 μM (L)) | IL1 ([4]; compound 0.2 μM (L)) | IL6 ([4]; compound 0.2 μM (L)) | MDA ([4]; compound 0.2 μM (L)) | SOD ([4]; compound 0.2 μM (L)) | GSH-Px ([4]; compound 1 μM (H)) | IL1 ([4]; compound 1 μM (H)) | IL6 ([4]; compound 1 μM (H)) | MDA ([4]; compound 1 μM (H)) | SOD ([4]; compound 1 μM (H)) | TNF-alpha ([4]; compound 0.2 μM (L)) | TNF-alpha ([4]; compound 1 μM (H)) | urinary protein levels (db/db mice)
1 | Cc1nc(C)c(COC(=O)OCCc2ccc(O)cc2)nc1C [OLB-1] | significantly improve the symptoms of bradykinesia | effectively reduce the number of rotations | significantly improve memory impairment | effectively increase the limb force | significantly reduce the death | 8.39 ± 0.69(c) umol/mg | 10.94 ± 1.48(a) pg/ml | 11.60 ± 1.39(a) pg/ml | 16.15 ± 1.26(c) nmol/mg | 12.58 ± 0.72(b) nU/ml | 13.71 ± 0.84(c) umol/mg | 8.46 ± 1.33(b) pg/ml | 7.97 ± 1.61(c) pg/ml | 10.51 ± 0.74(c) nmol/mg | 16.76 ± 0.38(c) nU/ml | 9.64 ± 1.56(a) pg/ml | 6.78 ± 1.67(c) pg/ml | significantly reduced urinary protein levels
2 | Cc1nc(C)c(CNC(=O)OCCc2ccc(O)cc2)nc1C [OLB-2] | significantly improve the symptoms of bradykinesia | effectively reduce the number of rotations | significantly improve memory impairment | effectively increase the limb force | significantly reduce the death | 7.93 ± 1.05(b) umol/mg | 10.34 ± 1.89(a) pg/ml | 11.05 ± 1.87(a) pg/ml | 15.75 ± 0.95(c) nmol/mg | 12.13 ± 0.65(b) nU/ml | 13.40 ± 1.24(c) umol/mg | 7.37 ± 1.58(c) pg/ml | 8.19 ± 1.24(c) pg/ml | 9.37 ± 0.73(c) nmol/mg | 15.16 ± 1.52(c) nU/ml | 9.92 ± 1.44(b) pg/ml | 6.99 ± 1.31(c) pg/ml | significantly reduced urinary protein levels

From patent publication US20240336577A1, “PYRAZINE COMPOUND, AND METHOD OF PREPARATION AND USE THEREOF” (SHENZHEN OLIVE BIOPHARMACEUTICALS CO., LTD, priority 2020, published 2024)
